Source: patent US5134073A, “Microbiologically produced N-acetyl-2,3-didehydroleucine acylase” (Degussa Aktiengesellschaft, priority 1989, dated 1992)
Where “and” joins values, the source holds several entries; their conditions need not be identical. Identical values can stand only once.

Columns and labels:
Zoogloea ramigera ABI 1 = experiment: Induction of N-acetyldehydroleucine acylase in agitated cultures, changing of the inductor; format: cell-based; conditions: inductor 3 g/l; for Acylase activity after 60 hours of incubation as a function of the inductor: agitated culture, pH 7
Method: All raw extracts were tested at least with N-acetyldehydroleucine and N-acetyldehydroisoleucine but, in most cases, also with N-acetyldehydrovaline. […] The enzymatic reaction was stopped in the batches incubated at 30° C. by adding 0.25 ml color reagent (1 g/l 2,4-dinitrophenyl hydrazine in 2 N HCl). After further incubation at 30° C. for 10 minutes with N-acetyldehydroleucine as substrate or 25 minutes with the isoleucine or valine derivative, 1.5 ml 2,5 N NaOH was added.
The keto acid released by the enzymatic hydrolysis forms, together with the 2,4-dinitrophenyl hydrazine, a Schiff's base colored red in the alkaline whose absorption was measured in a spectral photometer at 442 nm against a batch without N-acetyldehydroamino acid (=enzyme blank). A blank reading was deducted from these extinction values which blank reading is obtained if the extinction value of a batch only with buffer (=buffer blank) is deducted from that of a batch with buffer and N-acetyldehydroamino acid but without raw extract (=substrate blank). The concentration of the product produced was determined with a calibrated reference for the corresponding keto acid. The enzyme activity is indicated in international units. One unit (U) corresponds to an amount of 1 μmole released keto acid per minute.
Different substances were added in a concentration of 3 g/l as inductors into agitated cultures with a medium of mineral salt solution (cf. Example 1) with 0.5 g/l yeast extract and 0.5 g/l peptone at pH 7. The technology for agitated cultures is described in Example 1 a).

[1] = system: N-acetyldehydroleucine acylase; experiment: Hydrolysis of other compounds by the acylase (TLC / amino acid analyzer); format: biochemical, Zoogloea ramigera
Method: A qualitative check was performed for 81 compounds to see whether they are accepted as substrate by the acylase. The test batches contained:
After 16 and 40 hours incubation at 25° C., specimens were taken from the batches, most of which specimens were analyzed in comparison to substrate standards by means of thin-layer chromatography (70% (v/v) ethanol as mobile solvent). The detection took place with ninhydrin spray reagent. A few specimens were tested in addition or alternatively with the amino acid analyzer.
The amino acids produced from the amino acid amides by means of the action of acylase were detected quantitatively with the amino acid analyzer.

[2] = system: N-acetyldehydroleucine acylase; experiment: Acylase activity versus concentration of N-acetyldehydroamino acids (kinetic data); format: biochemical, Zoogloea ramigera
Method: The activity of the acylase was determined under standard conditions (cf. Example 8a)) with various N-acetyldehydroamino acids in concentrations of 0.1 to 300 mM. A second series of measurements with N-acetyldehydroleucinein the above-indicated concentration range was placed in 0.1 M tris/phosphoric acid buffer.
Reaction conditions: 0.1 M glycine, pH 9, 30° C.
Adaptation to the equation v = Vmax. · S/(KM + S +

[3] = system: N-acetyldehydroleucine acylase; experiment: Hydrolysis of hydantoins by the acylase; format: biochemical, Zoogloea ramigera; conditions: 25 mM substrate, 1 U/ml acylase, tris/phosphoric acid pH 9, 11.5 hours at 30° C.; ADL = 100%
Method: The test batches for the hydrolysis of hydantoins had the following composition:
25 mM substrate or buffer
50 mM tris/phosphoric acid buffer
Isopropylhydantoin, hydantoic acid and dihydrouracil were used as substrates. After 11.5 hours at 30° C., 175 μl 12% (w/v) trichloroacetic acid and 25 μl analytical reagent (10 % (w/v) […] in 6 N HCl) were added, precipitated protein centrifuged off in an Eppendorf table centrifuge and the absorption in the supernatants measured at 450 nm.

ADL acylase = experiment: Influence of glycine on the reaction rate; format: biochemical, Zoogloea ramigera
Method: The reaction of glycine in 0 to 1.2 molar concentration dissolved in 0.1 M tris/HCl buffer was determined under standard conditions (example 8a).

Substrate specificity: hydrolysis by the acylase [1]	% Vmax ([2]; glycine, 0.1 M, pH 9, 30° C.) [%]	Km ([2]; glycine, 0.1 M, pH 9, 30° C.)	Compound	Acylase activity after 60 hours of incubation as a function of the inductor (Zoogloea ramigera ABI 1) [U/mg]	further results
–	–	–	CC(=O)NC(C(=O)O)C(C)C (racemic) [Ac-D,L-valine]	0.031	–
hydrolyzes	46	2.62 mM	CC(=O)NC(=Cc1ccccc1)C(=O)O [ACA, 2-acetylamino cinnamic acid]	0.016	Induction capacity (Zoogloea ramigera ABI 1): only slightly active
hydrolyzes	14	5.77 mM	CCC(C)=C(NC(C)=O)C(=O)O [ADI, N-acetyl-2,3-didehydroisoleucine]	0.172	–
–	100	4.5 mM and 4.53 mM	CC(=O)NC(=CC(C)C)C(=O)O [ADL, N-acetyl-2,3-didehydroleucine]	0.222	Induction capacity (Zoogloea ramigera ABI 1): highest induction capacity; rel. activity (%) ([1]; 50 mM test substrate, 0.1 M tris/HCl pH 9, 25° C., hydrolysis rate with N-acetyldehydroleucine = 100%): 100.0%; Km ([2]; glycine, 0.1 M, pH 9, 30° C., listed as N-acetyl-2,3-didehydroleucine): 4.5 mM; % Vmax ([2]; tris-phosphoric acid 0.1 M): 62%; Km ([2]; tris-phosphoric acid 0.1 M): 7.01 mM
hydrolyzes	23	20.9 mM	CC(=O)NC(C(=O)O)=C(C)C [ADV, N-acetyl-2,3-didehydrovaline]	0.121	–
–	–	–	CC[C@H](C)[C@H](NC(C)=O)C(=O)O [Ac-L-isoleucine]	0.039	–
–	–	–	CC(=O)N[C@@H](CC(C)C)C(=O)O [Ac-L-leucine, N-acetyl-L-leucine]	0.018	–
–	–	–	O=C1CCNC(=O)N1 [Dihydrouracil]	–	rel. activity (%) [3]: 0%
–	–	–	NCC(=O)O [Glycine, glycine]	–	Influence of activators on substrate splitting (ADL acylase): accelerates the substrate splitting as a function of the concentration; EC50 (ADL acylase; 0.1 M tris/HCl buffer, calculation according to Ingami and Murachi, read-out: Glycine concentration necessary for one-half the maximum reaction acceleration): 90 mM
–	–	–	CC(C)C1NC(=O)NC1=O (stereo not shown) [Isopropy hydantoin]	–	rel. activity (%) [3]: 0%
